According to ChEMBL document CHEMBL3526061, “Glucuronidation of edaravone by human liver and kidney microsomes: biphasic kinetics and identification of UGT1A9 as the major UDP-glucuronosyltransferase isoform” (Drug Metab Dispos, 2012):

How the values were obtained:
Format in all cases: ADME
[1] = molecular target: T1, UDP-glucuronosyltransferase 2B17 (Homo sapiens, UniProt O75795); test: Activity of human recombinant UGT2B17 expressed in insect cells assessed as enzyme mediated glucuronidation at 500 uM by LC-MS/MS method
T1 sequence (O75795 whole entry): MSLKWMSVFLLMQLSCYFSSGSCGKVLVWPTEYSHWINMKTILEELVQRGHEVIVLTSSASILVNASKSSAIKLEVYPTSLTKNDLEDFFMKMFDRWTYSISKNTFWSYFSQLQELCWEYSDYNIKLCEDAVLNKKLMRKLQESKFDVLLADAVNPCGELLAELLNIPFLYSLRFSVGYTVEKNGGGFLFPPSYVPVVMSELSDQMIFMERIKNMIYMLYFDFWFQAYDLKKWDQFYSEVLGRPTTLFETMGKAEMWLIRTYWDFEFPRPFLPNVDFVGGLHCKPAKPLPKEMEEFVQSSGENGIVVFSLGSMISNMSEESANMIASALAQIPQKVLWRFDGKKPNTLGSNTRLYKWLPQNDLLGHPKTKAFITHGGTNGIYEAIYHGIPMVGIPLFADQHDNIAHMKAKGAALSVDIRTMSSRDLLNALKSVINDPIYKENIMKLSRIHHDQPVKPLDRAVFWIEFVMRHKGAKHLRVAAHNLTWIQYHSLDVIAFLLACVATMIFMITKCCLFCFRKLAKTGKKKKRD

[2] = molecular target: T2, UDP-glucuronosyltransferase 1A8 (Homo sapiens, UniProt Q9HAW9); test: Activity of human recombinant UGT1A8 expressed in insect cells assessed as enzyme mediated glucuronidation at 500 uM by LC-MS/MS method
T2 sequence (Q9HAW9 whole entry): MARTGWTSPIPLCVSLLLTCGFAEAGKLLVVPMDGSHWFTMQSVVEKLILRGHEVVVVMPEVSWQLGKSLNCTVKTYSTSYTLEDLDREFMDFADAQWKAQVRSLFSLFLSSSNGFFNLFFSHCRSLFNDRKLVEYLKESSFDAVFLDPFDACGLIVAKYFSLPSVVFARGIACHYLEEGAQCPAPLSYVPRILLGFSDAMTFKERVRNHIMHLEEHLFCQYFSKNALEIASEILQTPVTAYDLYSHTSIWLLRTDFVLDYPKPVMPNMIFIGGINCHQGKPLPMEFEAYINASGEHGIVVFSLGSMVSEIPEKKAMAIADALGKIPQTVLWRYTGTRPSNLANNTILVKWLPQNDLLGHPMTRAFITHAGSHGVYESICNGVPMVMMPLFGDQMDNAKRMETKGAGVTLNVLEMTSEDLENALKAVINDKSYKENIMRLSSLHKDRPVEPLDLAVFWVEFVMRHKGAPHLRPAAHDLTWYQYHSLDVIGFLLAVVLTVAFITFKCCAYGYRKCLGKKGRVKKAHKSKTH

[3] = molecular target: T3, UDP-glucuronosyltransferase 1A7 (Homo sapiens, UniProt Q9HAW7); test: Activity of human recombinant UGT1A7 expressed in insect cells assessed as enzyme mediated glucuronidation at 12.5 uM by LC-MS/MS method
T3 sequence (Q9HAW7 whole entry): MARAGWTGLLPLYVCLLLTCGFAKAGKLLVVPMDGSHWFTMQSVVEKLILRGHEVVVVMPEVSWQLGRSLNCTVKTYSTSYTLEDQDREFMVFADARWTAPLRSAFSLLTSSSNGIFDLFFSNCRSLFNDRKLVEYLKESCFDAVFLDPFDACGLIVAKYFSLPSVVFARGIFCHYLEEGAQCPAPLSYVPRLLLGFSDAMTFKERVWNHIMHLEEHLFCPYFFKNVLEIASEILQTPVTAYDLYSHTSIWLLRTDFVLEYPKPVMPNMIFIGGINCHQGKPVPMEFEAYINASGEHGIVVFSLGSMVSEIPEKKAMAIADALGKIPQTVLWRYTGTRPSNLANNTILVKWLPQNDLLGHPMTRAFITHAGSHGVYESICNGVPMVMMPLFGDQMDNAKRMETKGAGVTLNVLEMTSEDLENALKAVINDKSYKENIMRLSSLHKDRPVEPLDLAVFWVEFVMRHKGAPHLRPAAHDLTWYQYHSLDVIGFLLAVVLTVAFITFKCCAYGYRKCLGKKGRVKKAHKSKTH

[4] = molecular target: T1, UDP-glucuronosyltransferase 2B17; test: Activity of human recombinant UGT2B17 expressed in insect cells assessed as enzyme mediated glucuronidation at 12.5 uM by LC-MS/MS method
[5] = molecular target: T4, UDP-glucuronosyltransferase 2B15 (Homo sapiens, UniProt P54855); test: Activity of human recombinant UGT2B15 expressed in insect cells assessed as enzyme mediated glucuronidation at 500 uM by LC-MS/MS method
T4 sequence (P54855 whole entry): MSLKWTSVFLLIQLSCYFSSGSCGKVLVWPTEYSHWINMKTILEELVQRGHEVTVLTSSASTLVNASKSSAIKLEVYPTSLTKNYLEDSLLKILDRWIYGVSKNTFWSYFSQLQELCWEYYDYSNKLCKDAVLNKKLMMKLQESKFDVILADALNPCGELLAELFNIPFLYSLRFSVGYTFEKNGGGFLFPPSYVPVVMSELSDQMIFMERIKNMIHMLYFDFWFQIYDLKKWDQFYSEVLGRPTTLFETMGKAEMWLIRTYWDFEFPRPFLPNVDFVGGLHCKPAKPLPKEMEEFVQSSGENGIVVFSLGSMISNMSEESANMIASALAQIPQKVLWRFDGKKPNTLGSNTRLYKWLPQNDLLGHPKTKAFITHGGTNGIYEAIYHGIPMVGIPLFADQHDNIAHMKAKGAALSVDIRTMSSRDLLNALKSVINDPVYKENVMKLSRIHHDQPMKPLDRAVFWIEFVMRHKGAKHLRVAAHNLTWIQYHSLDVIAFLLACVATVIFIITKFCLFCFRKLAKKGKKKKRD

Liver microsome [6] = test: Drug metabolism in human liver microsomes assessed as drug glucuronidation in presence of 50 estradiol by LC-MS/MS method
Liver microsome [7] = test: Drug metabolism in human liver microsomes assessed as drug glucuronidation in presence of […] naloxone by LC-MS/MS method
[8] = molecular target: T1, UDP-glucuronosyltransferase 2B17; test: Activity of human recombinant UGT2B17 expressed in insect cells assessed as intrinsic clearance for enzyme mediated glucuronidation per mg protein by LC-MS/MS method

- Drug metabolism [1]: metabolite_detected
- Drug metabolism [2]: metabolite_detected
- Drug metabolism [3]: metabolite_detected
- Drug metabolism [4]: metabolite_detected
- Drug metabolism [5]: metabolite_detected
- Drug metabolism (Liver microsome [6]): metabolite_not_detected
- Drug metabolism (Liver microsome [7]): metabolite_detected
- CL [8]: 3.3 µL/min/g
Compound: CC1=NN(c2ccccc2)C(=O)C1 [EDARAVONE]
